Like-named read-outs stand apart in the source and are kept apart here.
Columns and labels:
[1] = tested on: Compound 1 reference standard (RS) specific T-cells; experiment: Inhibition of IL-2 secretion from T-cells of immunized mice after s.c. treatment (ELISA); type: in vivo
Excerpt: The biological activity was monitored by inhibition of IL-2 secretion from Compound 1 reference standard (RS) specific T-cells following subcutaneous (s.c.) treatment with the lyophilized compound solution, i.e. the drug product (DP), at two concentrations. The results of the treatment are compared to those of treating mice with Compound 1 (RS) in phosphate buffered saline (PBS).

[2] = tested on: PBL of SLE patients stimulated with phytohemagglutinin (PHA); experiment: Proliferation of PBL stimulated with mitogen PHA; type: cell-based, human; conditions: PHA 2 μg/ml; PBL of one SLE patient, FIG. 9
Experimental: To this end the peptides hCDR1 or hCDR3 were added to cultures of PBL of SLE patients that were stimulated with the mitogen phytohemagglutinin (PHA, 2 μg/ml).

[3] = tested on: LN cells; experiment: TGF-β secretion by cultured LN cells of immunized and treated mice (ELISA); type: in vivo, BALB/c mice; conditions: all Compound 1 treatment groups (25-200 μg/mouse)
Experimental: A group of 20 mice were immunized with 50 μg/mouse of Compound 1 RS. The immunized mice were allocated to five treatment groups as follows: placebo, 25, 50, 100 and 200 μg/mouse of Compound 1 DP (subcutaneous administration). Ten days post immunization and treatment, LN was extracted and single cell suspension was prepared. The in-vitro secretion of IFN-γ and TGF-β by the cultured cells in response to activation with several concentrations of Compound 1 RS was then measured. [table] […] Secretion of IFN-γ and TGF-β, as indication of cellular response, were determined by ELISA of culture media (48 hrs for IFN-γ and 72 hrs for TGF-β).

[4] = tested on: IL-2 secretion by PBL of SLE patients; experiment: Inhibition of IL-2 secretion by PBL stimulated with human 16/6Id mAb (CTLL line); type: cell-based
Experimental: It was of interest to find out whether the hCDR peptides are capable of inhibiting IL-2 secretion by PBL of SLE patients following stimulation with the human 16/6Id mAb. […] To this end, PBL of SLE patients were incubated with the human 16/6Id mAb in the absence or presence of the peptides hCDR1 or hCDR3. Supernatants of the cultures were collected following 48 hours of incubation. Assays to determine levels of IL-2 in the supernatants were performed using the CTLL IL-2 dependent line. Briefly, cells of the CTLL line (2×10^4/well) were incubated in the presence of the different supernatants for 24 hours, followed by the addition of ^3H-thymidine for an additional 18-hour incubation period. Cells were then harvested and radioactivity counted using a β-counter. Results were calculated based on recombinant human IL-2 used as a standard. The ability of the peptides to inhibit the IL-2 secretion of PBL of 23 responders stimulated by the human 16/6 Id was tested. […] Inhibition of proliferative responses of PBL directly correlated with IL-2 inhibition by the CDR-based peptides.

[5] = tested on: (NZB×NZW)F1 female mice; experiment: Lupus symptoms in SLE-prone (NZB×NZW)F1 female mice; type: in vivo, mouse
Experimental: The same batch of drug substance was used in this study and in the first Phase I clinical trial with Compound 1. The mice were followed for anti-dsDNA antibodies and for proteinuria. When the mice were sacrificed, the intensity of ICD was determined in kidneys.

[6] = tested on: PBL of SLE patients stimulated with human 16/6Id mAb; type: cell-based; conditions: for inhibition of proliferative responses to human 16/6Id mAb: PBL of one SLE patient
Experimental: Cells were then harvested and radioactivity was counted using a β-counter. Results were expressed as mean counts per minute (cpm) of triplicate cultures. Stimulation indices (the ratio of mean cpm at the optimal concentration of 16/6Id to mean cpm without 16/6Id) were then calculated. A stimulation index (SI)≧2 was considered positive. […] Inhibition of above 50% of the proliferative capacity was considered positive. The Table represents the highest positive inhibition capacity for each peptide. […] Both peptides inhibited the proliferation of PBL of 18/19(95%) of responders tested. It can also be seen in the Table that the magnitudes of inhibitions were similar for both peptides. Thus, it can be concluded that peptides based on CDR1 and CDR3 of the human 16/6Id mAb are efficient inhibitors of the proliferation of PBL of SLE patients to the human 16/6Id mAb.

[7] = tested on: Balb/c mice and (NZB×NZW)F1 mice; conditions: cited from earlier work
[8] = treated 50 μg/mouse s.c., activator Compd. 1 RS 5 μg/ml
[9] = treated 50 μg/mouse s.c., activator Compd. 1 RS 10 μg/ml
[10] = treated 50 μg/mouse s.c., activator Compd. 1 RS 25 μg/ml
[11] = treated 50 μg/mouse s.c., activator Compd. 1 RS 50 μg/ml
[12] = treated 50 μg/mouse s.c., activator Compd. 1 RS 100 μg/ml
[13] = treated 50 μg/mouse s.c., activator Compd. 1 RS […]
[14] = treated 200 μg/mouse s.c., activator Compd. 1 RS 5 μg/ml
[15] = treated 200 μg/mouse s.c., activator Compd. 1 RS 10 μg/ml
[16] = treated 200 μg/mouse s.c., activator Compd. 1 RS 25 μg/ml
[17] = treated 200 μg/mouse s.c., activator Compd. 1 RS 50 μg/ml
[18] = treated 200 μg/mouse s.c., activator Compd. 1 RS 100 μg/ml

For H-GYYWSWIRQPPGKGEEWIG-OH [Compound 1], the “Average inhibition (%) (at the range of 5-100 μg/ml)” value ([1]; treated 50 μg/mouse s.c.) was 45.6%, the IL-2 secretion ([1]; treated 50 μg/mouse s.c., activator Compd. 1 RS 0 μg/ml) was “BQL” and the IL-2 secretion ([1]; treated 50 μg/mouse s.c., activator Compd. 1 RS 0.5 μg/ml) was 9 pg/mL. The IL-2 secretion ([1]; treated 50 μg/mouse s.c., activator Compd. 1 RS 1 μg/ml) was “BQL”, the “% inhib. of IL-2 secretion” value [1, 8] was 55% and the IL-2 secretion [1, 8] was 9 pg/mL. For the same substance, the “% inhib. of IL-2 secretion” value [1, 9] was 38%, the IL-2 secretion [1, 9] was 16 pg/mL and the “% inhib. of IL-2 secretion” value [1, 10] was 48%. For the same substance, the IL-2 secretion [1, 10] was 15 pg/mL, the “% inhib. of IL-2 secretion” value [1, 11] was 47% and the IL-2 secretion [1, 11] was 21 pg/mL. The “% inhib. of IL-2 secretion” value [1, 12] was 41%, the IL-2 secretion [1, 12] was 25 pg/mL and the “% inhib. of IL-2 secretion” value [1, 13] was 51%. For the same substance, the IL-2 secretion [1, 13] was 8 pg/mL, the IL-2 secretion ([1]; treated 50 μg/mouse s.c., activator Con A […]) was 6,215 pg/ml and the “Average inhibition (%) (at the range of 5-100 μg/ml)” value ([1]; treated 200 μg/mouse s.c.) was 60.4%. For the same substance, the IL-2 secretion ([1]; treated 200 μg/mouse s.c., activator Compd. 1 RS 0 μg/ml) was “BQL”, the IL-2 secretion ([1]; treated 200 μg/mouse s.c., activator Compd. 1 RS 0.5 μg/ml) was 10 pg/mL and the IL-2 secretion ([1]; treated 200 μg/mouse s.c., activator Compd. 1 RS 1 μg/ml) was “BQL”. For the same substance, the “% inhib. of IL-2 secretion” value [1, 14] was 60%, the IL-2 secretion [1, 14] was 8 pg/mL and the “% inhib. of IL-2 secretion” value [1, 15] was 58%. For the same substance, the IL-2 secretion [1, 15] was 11 pg/mL, the “% inhib. of IL-2 secretion” value [1, 16] was 63% and the IL-2 secretion [1, 16] was 11 pg/mL. The “% inhib. of IL-2 secretion” value [1, 17] was 62%, the IL-2 secretion [1, 17] was 15 pg/mL and the “% inhib. of IL-2 secretion” value [1, 18] was 58%. For the same substance, the IL-2 secretion [1, 18] was 18 pg/mL, the IL-2 secretion ([1]; treated 200 μg/mouse s.c., activator Compd. 1 RS […]) was “BQL” and the IL-2 secretion ([1]; treated 200 μg/mouse s.c., activator Con A […]) was 5,403 pg/ml. For the same substance, the “inhibition of proliferative responses to mitogen PHA” value [2] was “could not inhibit”, the TGF-β secreted level [3] was “below the detection limit” and the “patients whose PBL IL-2 secretion was inhibited / tested” value ([4]; 23 responders) was 21/23. The Maximum inhibition % ([4]; IL-2 secretion with 16/6 Id alone = 100%) was 84 ± 31%, the “Inhibitory Activity* % (patients with inhibition of 50% or more)” value ([4]; PBL of 23 responders) was 91 (21/23) % and the “inhibition of IL-2 secretion” value ([4]; PBL of one SLE patient, FIG. 12) was 100%. For the same substance, the “Mean Proteinuria ± SEM” value ([5]; 25 μg/mouse s.c. once a week in Captisol®, 5 weeks following treatment initiation) was 0.16 ± 0.05 g/L, the “Mean Proteinuria ± SEM” value ([5]; 25 μg/mouse s.c. once a week in Captisol®, 7 weeks following treatment initiation) was 1.26 ± 1.09 g/L and the “Mean Proteinuria ± SEM” value ([5]; 25 μg/mouse s.c. once a week in Captisol®, 8 weeks following treatment initiation) was 0.5 ± 0.31 g/L. The “Mean Proteinuria ± SEM” value ([5]; 25 μg/mouse s.c. once a week in Captisol®, 10 weeks following treatment initiation) was 0.56 ± 0.3 g/L, the “Mean Proteinuria ± SEM” value ([5]; 50 μg/mouse s.c. once a week in Captisol®, 5 weeks following treatment initiation) was 0.75 ± 0.3 g/L and the “Mean Proteinuria ± SEM” value ([5]; 50 μg/mouse s.c. once a week in Captisol®, 7 weeks following treatment initiation) was 0.81 ± 0.3 g/L. The “Mean Proteinuria ± SEM” value ([5]; 50 μg/mouse s.c. once a week in Captisol®, 8 weeks following treatment initiation) was 1.09 ± 0.4 g/L, the “Mean Proteinuria ± SEM” value ([5]; 50 μg/mouse s.c. once a week in Captisol®, 10 weeks following treatment initiation) was 1.29 ± 0.3 g/L and the “ICD (Immune Complex Deposits) intensity, Mean ± SEM” value ([5]; 50 μg/mouse, kidneys at sacrifice, scale 0 = none, 1 = moderate, 2 = severe, 3 = severe/extremely intense) was 1.90 ± 0.23. The “levels of dsDNA-specific antibodies versus control” value ([5]; 25 or 50 μg/mouse, after 10 treatment injections) was “no significant differences”, the “intensity of immune complex deposits in kidney sections versus control group” value ([5]; either dose level (25 or 50 μg/mouse), FIG. 6) was “much lower” and the “Percent Inhibition of proliferation, Mean ± SD” value [6] was 68.12 ± 9.57%. For the same substance, the “inhibition of proliferative responses to human 16/6Id mAb” value ([6]; FIG. 10) was “inhibited efficiently”, the “inhibition of proliferative responses to human 16/6Id mAb” value ([6]; FIG. 11) was “did inhibit efficiently” and the “responders whose PBL proliferation was inhibited (above 50%)” value ([6]; of the 19 responders tested) was 84.2%. For the same substance, the “16/6 Id specific antibody response” value [7] was “no effect” and the “SLE related findings (immune complex deposits in the kidney, proteinuria, leukopenia)” value [7] was “significantly reduced”.

Reference: US20130023485A1, “PARENTERAL FORMULATIONS OF PEPTIDES FOR THE TREATMENT OF SYSTEMATIC LUPUS ERYTHEMATOSUS” (Teva Pharmaceutical Industries, Ltd., priority 2003, published 2013)
